The values below come from paper PMC7698045, “Milk Protein-Derived Antioxidant Tetrapeptides as Potential Hypopigmenting Agents” (Antioxidants, 2020).

The test system of one assay is B16F10 cells. Nature of the assay: Melanogenesis inhibition test in α-MSH-stimulated B16F10 cells. The class given is cell-based. On the procedure: (§1) B16F10 cells were cultured in DMEM that was supplemented with 10% (v/v) fetal bovine serum (FBS), 50 μg/mL streptomycin and 50 U/mL penicillin at 37 °C in 5% CO2. Mel-Ab cells were cultured in DMEM with 10% (v/v) FBS, 100 nM 12-O-tetradecanoylphorbol-13-acetate (TPA), 1 nM cholera toxin (CT), 50 μg/mL streptomycin and 50 U/mL penicillin at 37 °C in 5% CO2.
(§2) The effects of the inhibitors (peptides and arbutin) on melanin formation in Mel-Ab cells and B16F10 cells were evaluated. B16F10 cells (5 × 10^3 per well) were cultured in 96-well plates and incubated with the samples (1, 5, 10, 50 and 100 μM) in a complete medium that contained α-MSH for 4 days. Then, the medium was collected from each well and the optical densities were measured at 405 nm. Mel-Ab cells (5 × 10^4 per well) were cultured in 6-well plates and incubated with the samples (1, 5, 10, 50 and 100 μM) in the complete medium for 3 days. Next, the treated cells were then dissolved in 1 mL of 1 N NaOH at 100 °C for 30 min and centrifuged for 20 min at 16,000 g, after which the optical densities of the supernatants were measured at 400 nm.
The percentage of melanin content was calculated via following equation: % melanin content = (A/B) × 100 where A represents the optical density of the sample-treated group and B represents the optical density of the untreated control group. […]

The next assay concerns Mel-Ab cells. Description: Melanogenesis inhibition test in Mel-Ab cells. The class given is cell-based, mouse. On the procedure: as §1, §2
The percentage of melanin content was calculated via following equation: % melanin content = (A/B) × 100 where A represents the optical density of the sample-treated group and B represents the optical density of the untreated control group. All the tests were conducted independently three times. Each experiment was performed in triplicate and the results were averaged.

In a further assay the test system is mushroom tyrosinase. Nature of the assay: Mushroom tyrosinase inhibition test with L-DOPA as substrate. It counts as biochemical. The following applies: for IC50: L-DOPA 2.5 mM, mushroom tyrosinase 100 µg/mL (428 U/mL), 25 °C, 10 min, read-out: IC50 (tyrosinase inhibitory activity); for effect on dopachrome formation (UV-Vis scanning): dopachrome at 475 nm, L-DOPA and mushroom tyrosinase. As for the experimental part: A mushroom tyrosinase inhibition test was carried out with L-DOPA as a substrate. Two hundred fifty microliters of phosphate buffer (0.1 M, pH 6.8), 250 µL of 2.5 mM L-DOPA, 200 µL of water and 25 µL of oligopeptide in DMSO at various concentrations were mixed. The reaction mixture was incubated at 25 °C for 10 min after the addition of 25 µL of aqueous mushroom tyrosinase solution (100 µg/mL, 428 U/mL) and then the UV absorbance was measured at 475 nm. The following equation was used to calculate the percentage of mushroom tyrosinase inhibition: % Tyrosinase Inhibition = (1 − A/B) × 100 where A represents the absorbance at 475 nm of the reaction mixture that contained the inhibitor and B represents the absorbance at 475 nm of a reference reaction mixture that contained DMSO instead of the inhibitor. The concentration of half-maximal inhibitory activity (IC50) values were determined by measuring the tyrosinase inhibitory activity at various peptide concentrations (10, 50, 100, 250 and 500 µM). Each experiment was performed in triplicate and the results were averaged.

Assay [1] can be described thus: Lipid peroxidation ferric thiocyanate assay (antioxidant activity). The conditions noted are these: lipid peroxidation inhibition after 24 h, 50 °C, dark, peptide 250 μM; for antioxidant activity relative to the original peptide (enhancement): original peptide set to 1.0. As for the experimental part: Linoleic acid and Tween 20 were mixed in 0.1 M sodium phosphate buffer (pH 7.0) to prepare a linoleic acid emulsion (50 mM). […] These reaction mixtures were tightly capped by septa in glass vials and kept at 50 °C for 30 h under dark conditions. To evaluate the antioxidant activity of the oligopeptides by the quantification of lipid peroxidation inhibition, the ferric thiocyanate assay was used with some modifications. An aliquot of the reaction mixture (25 µL) was withdrawn at intervals and mixed with 1.175 mL of 75% ethanol, 25 µL of 20 mM ferrous chloride in 3.5% HCl and 25 µL of 30% ammonium thiocyanate. The absorbance was measured at 500 nm after 3 min, which was when the color development by the ferric thiocyanate complex was maximal. Each experiment was conducted in triplicate and the results were averaged.

Assay [2] relates to phosphorylation of CREB at serin-133. The conditions noted are these: 100 µM, α-MSH-treated B16F10 cells. On the procedure: For the Western blot analysis, B16F10 cells were seeded into 6-well plates. After 24 h, the cultured medium was replaced with serum-free DMEM and incubated for another 24 h. Then, the cells were treated with samples in new serum-free media and incubated for 0–360 min. Cells were lysed with RIPA buffer containing protease inhibitor cocktail and phosphatase inhibitor cocktail. Protein concentration was determined using the Bicinchoninic acid (BCA) protein assay kit (Thermo Scientific, Rockford, IL, USA). Protein (20 μg) samples were separated on 4–20% polyacrylamide gels and then transferred to polyvinylidene fluoride (PVDF) membranes (#1704156, Bio-Rad, Hercules, CA, USA), which were blocked with 5% nonfat dry milk in Tris buffered saline solution containing 0.1% Tween 20. The blots were incubated with the primary antibodies at 4 °C overnight. Membrane-bound primary antibodies were detected using HRP-conjugated secondary antibodies and chemiluminescent substrate. Digital images of the blotted membranes were obtained and analyzed using ChemiDoc XRS+ Systems with Image Lab Software (Version 5.1) (Bio-Rad). The relative protein expression of p-cAMP response element-binding protein (CREB) was normalized to that of CREB and glyceraldehyde 3-phosphate dehydrogenase (GAPDH).

Like-named read-outs stand apart in the source and are kept apart here. Ends that are not written are not given here. Peptide text beside a SMILES is read from it.

For `CC[C@H](C)[C@H](NC(=O)[C@H](Cc1c[nH]cn1)NC(=O)[C@H](CCSC)NC(C)=O)C(=O)N[C@@H](CCCNC(=N)N)C(N)=O` [Ac-MHIR] (Ac-MHIR-NH2), the “inhibition of melanin production (in words)” value with B16F10 cells (α-MSH treated B16F10 cells, various concentrations) is listed as “barely inhibits melanin production”.
Turning to “MHIRL-NH2 [MHIRL, methionine-histidine-isoleucine-arginine-leucine amide]”, in the assay on Mel-Ab cells (100 µM, 3 days), the “reduction of melanin content” value worked out at 28%.
As usually defined, the IC50 is the concentration at which inhibition is half-maximal. “Methionine-histidine-isoleucine-arginine amide [MHIR]”: the “reduction of melanin content” value with Mel-Ab cells (5 μM) came to 30%; in the assay with Mel-Ab cells (100 µM, 3 days), 57%. Further, the “suppression of melanin production” value with B16F10 cells (50 µM, B16F10 cells) is listed as “up to 80%”. Moreover, the “tyrosinase inhibition mode (Lineweaver-Burk plot)” value in the assay with mushroom tyrosinase (Km values increase and Vmax values decrease with increasing peptide concentration) is listed as “mixed-mode of inhibition”. Moreover, the IC50 at mushroom tyrosinase was found to be 83 µM. Also, the “effect on dopachrome formation (UV-Vis scanning)” value with mushroom tyrosinase is listed as “sufficiently suppress dopachrome formation”. Moreover, the “antioxidant activity relative to the original peptide (enhancement)” value in assay [1] is reported as 1.3–1.8 times. Further, the entries for the “suppression of phosphorylation of CREB” value in assay [2] (10 min) and in assay [2] (180 min) were 18% and 37%, respectively.
On to “histidine-isoleucine-arginine-leucine amide [HIRL]”, for which, in the assay with Mel-Ab cells (100 µM, 3 days), the “reduction of melanin content” value is 33%. Also, on mushroom tyrosinase, the concentration for half-maximal inhibition (IC50) came to 70 µM and the “effect on dopachrome formation (UV-Vis scanning)” value is “sufficiently suppress dopachrome formation”. For the same compound, in assay [1], the “decrease of antioxidant activity relative to the original peptide” value is on record as “more than 50%” and the “antioxidant activity relative to the original peptide (enhancement)” value was 1.3–1.8 times.
